Results taken from patent US20160311788A1, “Antifouling Compounds And Use Thereof” (National University of Singapore, priority 2008, published 2016).
Like-named read-outs stand apart in the source and are kept apart here.

What was measured:
[1] = system: marine bacteria strain S9; test: disc inhibition assay, strain S9; type: cell-based, Bacillus algicola; details: for zone of inhibition at 50 µg/disc: Guptibacillus algicola, S9, 24 h
Experimental: (§1) The disc inhibition assay was used. This assay is a conventional method routinely used for screening antibacterial compounds to determine degree of susceptibility to antibacterial compounds. The diameter of the zone of inhibition is proportional to the degree of susceptibility of the bacterial strain. The compounds were tested against 13 strains of marine bacteria isolated from Singapore coastal waters.
(§2) 13 strains of marine bacteria were isolated from fouling communities located in the coastal waters around Singapore. These were characterized in earlier studies and reported in Teo et al. (U.S. patent application Ser. No. 11/265,833) and Choong et al (in prep). In addition, four reference bacterial strains were added tested: Escherichia coli (Strain K12, ATCC 15222), E. coli (strain DH5a), Pseudomonas aeruginosa (strain LMG 12228; ATCC 15692) and P. putida (strain KT2440; ATCC 47054). All the bacteria were also tested against five antibiotics: ampicillin (AMP), tetracycline (TETR), erythromycin (ERY), chloramphenicol (CHL) and streptomycin (STREP).
(§3) Disks comprising the compounds to be tested were prepared as follows. The antibacterial assay, the pure compounds were made up to a concentration of 2 mgml^−1 in DMSO. 25 μl of the stock was pipetted onto each 6 mm sterile disc (Macherey-Nagel #484000) to obtain 50 μg of compound per disc. Equivalent volume of DMSO was used inoculated for the control.
(§4) For all disk inhibition assays, bacterial cultures were grown in marine broth (Pronadisa #1217.00). Sterile swabs dipped into the cultures were used to inoculate Marine Agar plates with a bacterial lawn by smearing the culture over the surface. After inoculating the plates, discs with antibiotics, pharmaceuticals or control blanks were placed on each plate. Each concentration of antibiotic or pharmaceutical was tested with two replicates. After the disks were placed on the agar surface, plates were incubated overnight in the dark at 35° C. After incubation, plates were examined for zones of inhibition or clearing around control and treated disks. The diameter of any zone of clearing or inhibition was measured using Vernier calipers. There were two replicates per treatment, and the average was taken.

[2] = system: marine bacteria strain S3; test: disc inhibition assay, strain S3; type: cell-based, Erythrobacter aquimaris; details: for zone of inhibition at 50 µg/disc: Qipengyuania aquimaris, S3, 24 h
Experimental: as §1, §2, §3, §4

[3] = system: marine bacteria strain S1; test: disc inhibition assay, strain S1; type: cell-based, Rhodovulum iodosum; details: for zone of inhibition: strain 1, 50 μg of compound per disc
Experimental: as §1, §2, §3, §4

[4] = system: marine bacteria strain S18; test: disc inhibition assay, strain S18; type: cell-based, Microbacterium esteraromaticum; details: for zone of inhibition at 50 µg/disc: Microbacterium esteraromaticum, S18, 24 h
Experimental: as §1, §2
(§5) Disks comprising the compounds to be tested were prepared as follows. The antibacterial assay, the pure compounds were made up to a concentration of 2 mgml^−1 in DMSO. […] Equivalent volume of DMSO was used inoculated for the control.
as §4

[5] = system: marine bacteria strain S27; test: disc inhibition assay, strain S27; type: cell-based, Tenacibaculum lutimaris; details: strain 27, 50 μg of compound per disc
Experimental: as §1, §2, §3, §4

[6] = system: marine bacteria strain S17; test: disc inhibition assay, strain S17; type: cell-based, Gordonia terrae; details: for zone of inhibition at 50 µg/disc: Gordonia terrae, S17, 24 h
Experimental: as §1, §2, §3, §4

[7] = system: marine bacteria strain S4; test: disc inhibition assay, strain S4; type: cell-based, Bacillus algicola; details: for zone of inhibition at 50 µg/disc: Guptibacillus algicola, S4, 24 h
Experimental: as §1, §2, §3, §4

[8] = system: marine bacteria strain S14; test: disc inhibition assay, strain S14; type: cell-based, Vibrio probioticus; details: strain 14, 50 μg of compound per disc
Experimental: as §1, §2, §5, §4

[9] = system: marine bacteria strain S30; test: disc inhibition assay, strain S30; type: cell-based, Bacillus borophilicus; details: for zone of inhibition at 50 µg/disc: Bacillus, S30, 24 h
Experimental: as §1, §2, §3, §4

[10] = system: marine bacteria strain S28; test: disc inhibition assay, strain S28; type: cell-based, Arthrobacter protophormial; details: for zone of inhibition at 50 µg/disc: Arthrobacter, S28, 24 h
Experimental: as §1, §2, §3, §4

[11] = system: marine bacteria strain S16; test: disc inhibition assay, strain S16; type: cell-based, Pseudoalteromonas piscicida; details: for zone of inhibition at 50 µg/disc: Pseudoalteromonas piscicida, S16, 24 h; for antibacterial activity in words: strain S16
Experimental: as §1, §2, §3, §4

[12] = system: marine bacteria strain S10; test: disc inhibition assay, strain S10; type: cell-based, Halobacillus trueperi; details: for zone of inhibition at 50 µg/disc: Halobacillus trueperi, S10, 24 h
Experimental: as §1, §2, §3, §4

[13] = system: marine bacteria strain S29; test: disc inhibition assay, strain S29; type: cell-based, Bacillus hwajinpoensis; details: for zone of inhibition at 50 µg/disc: Guptibacillus hwajinpoensis, S29, 24 h
Experimental: as §1, §2, §3, §4

[14] = strain 9, 50 μg of compound per disc
[15] = strain 3, 50 μg of compound per disc, read-out: zone of inhibition
[16] = strain 18, 50 μg of compound per disc
[17] = strain 17, 50 μg of compound per disc
[18] = strain 4, 50 μg of compound per disc
[19] = strain 30, 50 μg of compound per disc
[20] = strain 28, 50 μg of compound per disc
[21] = strain 16, 50 μg of compound per disc
[22] = strain 10, 50 μg of compound per disc
[23] = strain 29, 50 μg of compound per disc
[24] = strain 3, 50 μg of compound per disc
[25] = strain 16, 50 μg of compound per disc, read-out: zone of inhibition
[26] = strain 10, 50 μg of compound per disc, read-out: zone of inhibition

| Compound | zone of inhibition [1, 14] | zone of inhibition [3] | zone of inhibition [4, 16] | zone of inhibition [5] | zone of inhibition [6, 17] | zone of inhibition [7, 18] | zone of inhibition [8] | zone of inhibition [9, 19] | zone of inhibition [10, 20] | zone of inhibition [11, 21] | zone of inhibition [12, 22] | zone of inhibition [13, 23] | zone of inhibition at 50 µg/disc [1] [mm] | zone of inhibition at 50 µg/disc [2] [mm] | zone of inhibition at 50 µg/disc [4] [mm] | zone of inhibition at 50 µg/disc [6] [mm] | zone of inhibition [2, 24] | zone of inhibition at 50 µg/disc [11, 25] [mm] | further results |
| --- | --- | --- | --- | --- | --- | --- | --- | --- | --- | --- | --- | --- | --- | --- | --- | --- | --- | --- | --- |
| O=C(C(c1ccccc1)c1ccccc1)N1CCC(O)(c2ccc(Cl)cc2)CC1 [Compound 4.3] | − | − | − | − | − | − | − | − | − | − | − | − |  |  |  |  |  |  | zone of inhibition at 50 µg/disc [2, 15]: 2 to 5 mm |
| CN(C)C(=O)C(CC[N+]1(C)CCC(O)(c2ccc(Cl)cc2)CC1)(c1ccccc1)c1ccccc1 (stereo not drawn) [Compound 4.7] |  | − |  | − |  |  | − |  |  |  |  |  | 5 to 10 | 5 to 10 | 2 to 5 | 2 to 5 |  |  | zone of inhibition at 50 µg/disc [7]: 5 to 10 mm; zone of inhibition at 50 µg/disc [9]: 2 to 5 mm; zone of inhibition at 50 µg/disc [10]: 5 to 10 mm; zone of inhibition at 50 µg/disc [11]: 2 to 5 mm; zone of inhibition at 50 µg/disc [12]: 5 to 10 mm; zone of inhibition at 50 µg/disc [13]: 5 to 10 mm |
| CN(C)C(=O)C(CC[N+]1(O)CCC(O)(c2ccc(Cl)cc2)CC1)(c1ccccc1)c1ccccc1 (stereo not drawn) [Compound 5.1] | − | − | − | − |  | − | − | − | − |  | − | − |  | 2 to 5 |  | 2 to 5 |  |  | zone of inhibition at 50 µg/disc [11]: 2 to 5 mm |
| COC1(c2ccc(Cl)cc2)CC[N+](C)(CCC(C(=O)N(C)C)(c2ccccc2)c2ccccc2)CC1 (stereo not drawn) [Compound 5.2, N,O-dimethyl Loperamide] |  |  |  | − |  |  | − |  |  |  |  |  | 5 to 10 | 5 to 10 | > 10 | 2 to 5 |  |  | zone of inhibition at 50 µg/disc ([3]; Rhodovulum iodosum, S1): 2 to 5 mm; antibacterial activity in words ([3]; strain S1, text): had activity; zone of inhibition at 50 µg/disc [7]: 5 to 10 mm; zone of inhibition at 50 µg/disc [9]: 5 to 10 mm; zone of inhibition at 50 µg/disc [10]: 5 to 10 mm; zone of inhibition at 50 µg/disc [11]: 2 to 5 mm; zone of inhibition at 50 µg/disc [12]: 5 to 10 mm; zone of inhibition at 50 µg/disc [13]: 5 to 10 mm |
| CC(=O)OC1(c2ccc(Cl)cc2)CCN(CCC(C(=O)N(C)C)(c2ccccc2)c2ccccc2)CC1 [Compound 5.3] |  | − |  | − |  |  | − |  |  | − |  |  | 2 to 5 | 5 to 10 | 2 to 5 | 2 to 5 |  |  | zone of inhibition at 50 µg/disc [7]: 2 to 5 mm; zone of inhibition at 50 µg/disc [9]: 2 to 5 mm; zone of inhibition at 50 µg/disc [10]: 2 to 5 mm; zone of inhibition at 50 µg/disc [12]: 5 to 10 mm; zone of inhibition at 50 µg/disc [13]: 2 to 5 mm |
| CN(C)C(=O)C(CCN1CCCCC1)(c1ccccc1)c1ccccc1 [Compound 9.1, N, N-Dimethyl-2,2-diphenyl-4-(piperidin-1-yl)butanamide] |  | − |  | − | − | − | − | − | − | − | − | − | 2 to 5 |  | 2 to 5 |  | − |  |  |
| O=C(C(c1ccccc1)c1ccccc1)N1CCC(O)CC1 [Compound 9.3] | − | − | − | − | − | − | − | − | − |  |  | − |  |  |  |  | − | 2 to 5 | zone of inhibition at 50 µg/disc [12, 26]: 2 to 5 mm |
| O=C(Cc1ccccc1)N1CCCCC1 [Compound 10.5] | − | − | − | − | − | − | − | − | − |  | − | − |  |  |  |  | − | 5 to 10 |  |
| CCCCCC(=O)N1CCCCC1 [Compound 11.1] | − | − | − | − | − | − | − | − | − |  | − | − |  |  |  |  | − | 5 to 10 | antibacterial activity in words [11]: susceptible |
| CCCCCC(=O)N(C)C [Compound 11.2] | − | − | − | − | − | − | − | − | − |  | − | − |  |  |  |  | − | 2 to 5 | antibacterial activity in words [11]: susceptible |
| C/C=C/C=C/C(=O)N1CCCCC1 [Compound 11.4] |  |  |  |  |  |  |  |  |  |  |  |  |  |  |  |  |  |  | antibacterial activity in words [11]: susceptible |
| CCCCC(C(=O)N1CCCCC1)c1ccccc1 (stereo not drawn) [Compound 12.1, 2-Phenyl-1-(piperidin-1-yl)hexan-1-one] |  | − |  |  |  |  | − |  |  | − |  |  |  |  |  |  |  |  | zone of inhibition at 50 µg/disc ([1]; strain 9, 50 μg of compound per disc, read-out: zone of inhibition): 2 to 5 mm; zone of inhibition at 50 µg/disc [2, 15]: 5 to 10 mm; zone of inhibition at 50 µg/disc ([4]; strain 18, 50 μg of compound per disc, read-out: zone of inhibition): 2 to 5 mm; zone of inhibition at 50 µg/disc ([5]; Tenacibaculum lutimaris, S27, 24 h, read-out: zone of inhibition): 2 to 5 mm; zone of inhibition at 50 µg/disc ([6]; strain 17, 50 μg of compound per disc, read-out: zone of inhibition): 2 to 5 mm; zone of inhibition at 50 µg/disc ([7]; strain 4, 50 μg of compound per disc, read-out: zone of inhibition): 2 to 5 mm; zone of inhibition at 50 µg/disc ([9]; strain 30, 50 μg of compound per disc, read-out: zone of inhibition): 2 to 5 mm; zone of inhibition at 50 µg/disc ([10]; strain 28, 50 μg of compound per disc, read-out: zone of inhibition): 2 to 5 mm; zone of inhibition at 50 µg/disc [12, 26]: 2 to 5 mm; zone of inhibition at 50 µg/disc ([13]; strain 29, 50 μg of compound per disc, read-out: zone of inhibition): 2 to 5 mm |
